Test results published in ChEMBL document CHEMBL4196043, “Discovery and optimization of 2-thio-5-amino substituted benzoquinones as potent anticancer agents” (Eur J Med Chem, 2018).

Key:
PC-3 [1] = assay: Antiproliferative activity against human PC3 cells after 48 hrs by MTS assay; assay type: functional, cell-based; conditions: PC-3, 48 h
[2] = Aqueous solubility of the compound in water by HPLC-UV spectrophotometric analysis; assay type: physicochemical
MCF7 = assay: Antiproliferative activity against human MCF7 cells after 48 hrs by MTS assay; assay type: functional, cell-based; conditions: MCF7, 48 h
HCT-116 = assay: Antiproliferative activity against human HCT116 cells after 48 hrs by MTS assay; assay type: functional, cell-based; conditions: HCT-116, 48 h
[3] = Selectivity index, ratio of IC50 for human HELF to IC50 for human PC3 cells; assay type: toxicity; conditions: HELF cells and PC3 cells, read-out: Ratio IC50
A549 [4] = assay: Antiproliferative activity against human A549 cells after 48 hrs by MTS assay; assay type: functional, cell-based; conditions: A549, 48 h
A-375 = assay: Antiproliferative activity against human A375 cells after 48 hrs by MTS assay; assay type: functional, cell-based; conditions: A-375, 48 h
[5] = Antiproliferative activity against human HELF after 48 hrs by MTS assay
SW480 = assay: Antiproliferative activity against human SW480 cells after 48 hrs by MTS assay; assay type: functional, cell-based; conditions: SW480, 48 h
PC-3 [6] = assay: Growth inhibition of human PC3 cells at 10 uM after 48 hrs by MTS assay; assay type: functional; conditions: PC-3, 48 h, read-out: GI
BGC-823 = assay: Growth inhibition of human BGC823 cells at 10 uM; assay type: functional; conditions: read-out: GI
A549 [7] = assay: Growth inhibition of human A549 cells at 10 uM after 48 hrs by MTS assay; assay type: functional; conditions: A549, 48 h, read-out: GI

Row | SMILES | IC50 (PC-3 [1]) [nM] | inhibition of growth at 10 µM (PC-3 [6]) [%] | further results
1 | C=CCSC1=CC(=O)C(NCCCN)=CC1=O | 1570 | – | –
2 | C=CCSC1=CC(=O)C(NCCNC(C)=O)=CC1=O | 2770 | – | –
3 | C=CCSC1=CC(=O)C(NCCCNCCO)=CC1=O | 2170 | – | –
4 | C=CCSC1=CC(=O)C(NCCCN(C)C)=CC1=O.Cl | 910 | – | solubility [2]: > 200 mg/mL
5 | C=CCSC1=CC(=O)C(NCCCNC)=CC1=O.Cl | 314 | – | solubility [2]: > 200 mg/mL
6 | C=CCSC1=CC(=O)C(N[C@H]2CC[C@H](N)CC2)=CC1=O.Cl | 224 | – | IC50 (MCF7): 259 nM; IC50 (HCT-116): 408 nM; solubility [2]: 23.2 mg/mL; selectivity ratio [3]: 47; IC50 (A549 [4]): 376 nM; IC50 (A-375): 220 nM; IC50 [5]: 10500 nM; IC50 (SW480): 1220 nM
7 | CC(O)CNC1=CC(=O)C(SC2C=CCCC2)=CC1=O (stereo not drawn) | – | 46.9 | –
8 | C=CCSC1=CC(=O)C(NCCCl)=CC1=O | 602 | – | –
9 | C=C(Cl)CSC1=CC(=O)C(NCC(C)O)=CC1=O (stereo not drawn) | – | 20 | –
10 | C=C(CSC1=CC(=O)C(NCC(C)O)=CC1=O)c1ccccc1 (stereo not drawn) | – | 11.8 | –
11 | C=CCSC1=CC(=O)C(NCCC(=O)OC)=CC1=O | 4670 | – | –
12 | COc1ccccc1/C=C/CSC1=CC(=O)C(NCC(C)O)=CC1=O (stereo not drawn) | – | 5.9 | –
13 | C=C(C)CSC1=CC(=O)C(NCC(C)O)=CC1=O (stereo not drawn) | – | 61.9 | –
14 | C=CCSC1=CC(=O)C(N[C@H]2CC[C@@H](N)CC2)=CC1=O | 483 | – | –
15 | C=CCSC1=CC(=O)C(NCCCN2CCOCC2)=CC1=O | 1460 | – | –
16 | C/C=C/CSC1=CC(=O)C(NCC(C)O)=CC1=O (stereo not drawn) | – | 67.6 | –
17 | C=CCSC1=CC(=O)C(NCCS(C)(=O)=O)=CC1=O | 1540 | – | –
18 | C=CCSC1=CC(=O)C(NCC(C)O)=CC1=O (stereo not drawn) | 5000 | 88 | inhibition of growth at 10 µM (BGC-823): 88.5%; inhibition of growth at 10 µM (A549 [7]): 85.5%
19 | C=CCSC1=CC(=O)C(NCCN2CCNC2=O)=CC1=O | 2190 | – | –
20 | C=CCSC1=CC(=O)C(NCCOCCO)=CC1=O | 394 | – | –
21 | C=CCSC1=CC(=O)C(N[C@H]2CC[C@H](O)CC2)=CC1=O | 330 | – | solubility [2]: < 1 mg/mL
22 | C=CCSC1=CC(=O)C(NCCO)=CC1=O | 720 | – | –
23 | CC(O)CNC1=CC(=O)C(SC/C=C/c2ccc(F)cc2)=CC1=O (stereo not drawn) | – | 12.2 | –
24 | C=CCSC1=CC(=O)C(NCCP(=O)(OCC)OCC)=CC1=O | 701 | – | –
25 | C=CCSC1=CC(=O)C(NCCCCO)=CC1=O | 461 | – | –
26 | C=CCSC1=CC(=O)C(NCC(O)CO)=CC1=O (stereo not drawn) | 3980 | – | –
27 | CC(O)CNC1=CC(=O)C(SC/C=C/c2cccnc2)=CC1=O (stereo not drawn) | – | 9.45 | –
28 | C=CCSC1=CC(=O)C(NCCCO)=CC1=O | 678 | – | –
29 | CC(O)CNC1=CC(=O)C(SC/C=C/c2ccccc2)=CC1=O (stereo not drawn) | – | 3.75 | –
